In patent US6512166B1, “Combinations of fungal cell wall degrading enzyme and fungal cell membrane affecting compound” (priority 1991, dated 2003):
Values after ≈ are worked out from the molar mass of the structure shown.

What was measured:
[1] = Solubility, guidance for forming solutions
Excerpt: Compositions for use in the systems herein are readily formulated by admixing the fungal cell wall degrading enzymes and the antifungal fungal cell membrane affecting compounds with non-toxic carriers appropriate for the particular use for a composition, e.g., agriculturally acceptable carriers for agricultural uses and pharmaceutically acceptable carriers for medicinal uses. They may be formulated as liquids (solutions or suspensions) or as solids. Since the fungal cell wall degrading enzymes need free water for activity, water must be present at the time of function. […] Water is a preferred vehicle where components are soluble in it. […] Organic solvents can also be used and may be required in some cases if a solution is desired. Guidance for forming solutions follows. […] Suspension can also be employed.

[2] = test system: Fusarium oxysporum strain FOP1; assay: Inhibition of spore germination, ELISA plate assay (Examples V-XIV, XVII); format: cell-based; details: for inhibition of spore germination: FIG. 8
Description: (§1) The concentration where fungal cell wall degrading enzyme individually provides a specified percentage fungal inhibition or where antifungal fungal cell membrane affecting compound individually provides a specific percentage fungal inhibition can be determined as follows: Assays are performed under sterile conditions. Equal volumes of spore suspensions, 3× potato dextrose broth, and the test solution or suspension in 5 mM Tris-HCl (pH 6.0) or 5 mM potassium phosphate buffer (pH 6.7) are mixed. The control is the same as the test solution except for the control the antifungal agent is omitted. The assay mixtures (total volume 45 or 30 μl) are incubated on flat-bottomed ELISA plates, each containing 96 wells, with 2,000 to 3,000 spores per well, at 25° C. After 22 to 30 hours, the plates are placed under an inverted microscope. The percentage of conidia germinating is determined as the percentage of the first 100 spores randomly found in a well. In addition, the lengths of 20 germ tubes are measured and averaged. All experiments are performed twice, with three replicates for each treatment. The inhibition values obtained in the two experiments are combined and averaged, and standard deviations are calculated from the 6 data points. The values obtained for the control are taken as 0% inhibition and all other values are divided by the values obtained for the control and multiplied by 100% to obtain percent inhibition. Determination of concentration corresponding to a particular percent inhibition is carried out by subjecting dose-response curves to regression analysis by using a binomial regression of the third order, with R^2 ranging between 0.95 and 0.99.
(§2) Assays were carried out by the procedure described in the summary of the invention section. Dose response curves were obtained by probit analysis of data collected from two separate experiments with each experiment involving three treatment replicates.
(§3) Dose response curves were determined for each antifungal fungal cell membrane affecting compound and for each fungal cell wall degrading enzyme singly. Then each fungal cell wall degrading enzyme at a concentration giving 10% inhibition when used alone was combined with increasing amounts of antifungal fungal cell membrane affecting compound. Then the concentration of antifungal fungal cell membrane affecting compound causing the ED50 for each combination was calculated by probit analysis of data collected from two experiments with three treatment replicates for each experiment. Assays for inhibition of spore germination were carried out as described in the summary of invention section above.
The relative level of synergism (RS below) for each combination was calculated by applying Limpel's formula: Ee=X+Y−(XY/100) as described in Richer, D. L, Pestic. Sci. 19, 309-315, 1987. In Limpel's formula, X and Y are the percentages of inhibition relative to each compound used alone and Ee is the expected effect for an additional (non-synergistic) effect. If the combination of the two agents produces an observed effect (Eo) greater than Ee, synergism exists, and as the difference between Eo and Ee increases, the level of synergism is greater. In this experiment, the X value (percentage inhibition by fungal cell wall degrading enzyme when used alone was chosen to be 10 (10% inhibition of spore germination when used alone) and the observed effect, Eo, was 50 (i.e., 50% inhibition of spore germination). The Y values were obtained from the determined concentrations of antifungal cell membrane affecting compound causing the ED50 for a combination and the dose response curves for the antifungal cell membrane affecting compound used alone—i.e., the Y value was the percent inhibition for the antifungal fungal cell membrane affecting compound when used alone for the concentration of antifungal fungal cell membrane affecting compound that was determined to cause the ED50 for the combination. Ee values were then calculated from Limpel's formula. […]

B. cinerea strain 12 = assay: Inhibition of spore germination, ELISA plate assay (Examples III-XVI, XVIII); format: cell-based, Botrytis cinerea; details: for ED50: alone or with enzyme at its ED10 concentration; for inhibition of spore germination: FIG. 7
Description: as §1, §2
Each of 8 antifungal fungal cell membrane affecting compounds were used in combination with each of 8 or 6 fungal cell wall degrading enzymes to provide 50% inhibition (ED50) of B. cinerea strain 12 spore germination. Each fungal cell wall degrading enzyme was used at a concentration giving 10% inhibition of spore germination when used alone in combination with an amount of antifungal fungal cell membrane affecting compound so the combination gave 50% inhibition of spore germination.
as §3
The relative level of synergism (RS below) for each combination was calculated by applying Limpel's formula: Ee=X+Y−(XY/100) as described in Richer, D. L, Pestic. Sci. 19, 309-315, 1987. In Limpel's formula, X and Y are the percentages of inhibition relative to each compound used alone and Ee is the expected effect for an additional (non-synergistic) effect. If the combination of the two agents produces an observed effect (Eo) greater than Ee, synergism exists, and as the difference between Eo and Ee increases, the level of synergism is greater. […]

B. cinerea = details: against B. cinerea, Watanabe et al; cited from earlier work

Q: With CN1C(=O)[C@]23CC4=CC=C[C@H](O)[C@H]4N2C(=O)[C@@]1(CO)SS3 [Gliotoxin, gliotoxin] as the molecule, how does the “solubility (solvent in which the substance dissolves)” value (from here on “solubility”) [1] read?
A: dissolves in methanol and ethanol

Q: For CC(C)[C@@H]1NC(=O)[C@H](C)OC(=O)[C@@H](C(C)C)NC(=O)[C@@H](C(C)C)OC(=O)[C@H](C(C)C)NC(=O)[C@H](C)OC(=O)[C@@H](C(C)C)NC(=O)[C@@H](C(C)C)OC(=O)[C@H](C(C)C)NC(=O)[C@H](C)OC(=O)[C@@H](C(C)C)NC(=O)[C@@H](C(C)C)OC1=O [Valinomycin, valinomycin], which ED ([2]; Table 24, concentration of valinomycin for 50% inhibition, alone or with enzyme at its ED10 concentration) is on record?
A: 8.5 (8.0-9.0) ng ml^−1

Q: And the “solubility” value [1]?
A: dissolve in acetone

Q: What about the ED50 (B. cinerea strain 12; Table 16, concentration of valinomycin for 50% inhibition) of the same molecule?
A: 7.3 (7.0-7.6) μg ml^−1

Q: With CC(C)OP(=O)(OC(C)C)SCc1ccccc1 [kitazin P] as the molecule, how does the Minimum inhibitory concentration (B. cinerea) read?
A: 500 µg/mL (≈ 1730 µM)

Q: For NC(=O)OC[C@H](O)[C@@H](O)[C@H](N)C(=O)N[C@H](C(=O)O)[C@H]1O[C@@H](n2cc(CO)c(=O)[nH]c2=O)[C@H](O)[C@@H]1O [polyoxin B], which Minimum inhibitory concentration (B. cinerea) is on record?
A: 12.5 µg/mL (≈ 24.6 µM)

Q: For gramicidin, which ED50 ([2]; Table 23, concentration of gramicidin for 50% inhibition, alone or with enzyme at its ED10 concentration) is on record?
A: >300 ng/mL

Q: And the “inhibition of spore germination” value ([2]; gramicidin alone)?
A: 20-25%

Q: What about the “inhibition of spore germination” value ([2]; gramicidin with glucosidase from T. harzianum strain P1 (10, 25 μg/ml)) of the same molecule?
A: about 100%

Q: And the “solubility” value [1]?
A: dissolves in ethanol

Q: And the ED50 (B. cinerea strain 12; Table 15, concentration of gramicidin for 50% inhibition)?
A: >300 µg/mL

Q: And the “inhibition of spore germination” value (B. cinerea strain 12; gramicidin alone)?
A: 20-25%

Q: What about the “inhibition of spore germination” value (B. cinerea strain 12; gramicidin with endochitinase from G. virens strain 41 (2.5, 5 μg/ml)) of the same molecule?
A: about 100%

Q: Which ED50 ([2]; Table 26, concentration of trichorzianine A1 for 50% inhibition, alone or with enzyme at its ED10 concentration) does the source give for trichorzianine A1 [Trich. A1] here?
A: 87 (83-91) ng ml^−1

Q: What about the “solubility” value [1] of the same molecule?
A: readily dissolved in water

Q: And the ED50 (B. cinerea strain 12; Table 18, concentration of trichorzianine A1 for 50% inhibition)?
A: 90.5 (85-95) μg ml^−1

Q: What does the source list for trichorzianine B1 [Trich. B1]?
A: ED50 ([2]; Table 27, concentration of trichorzianine B1 for 50% inhibition, alone or with enzyme at its ED10 concentration): 95.5 (92-99) ng ml^−1; solubility (solvent in which the substance dissolves) [1]: readily dissolved in water; ED50 (B. cinerea strain 12; Table 19, concentration of trichorzianine B1 for 50% inhibition): 95.2 (92-99) μg ml^−1
